ChEMBL document CHEMBL1201862, “PubChem BioAssay data set” (2004)
The source made the active and inactive calls.

Legend:
[1] = cells; type: functional
[2] = HepG2 cell cytotoxicity, dose response, cytotoxicity control for non-replicating M. tuberculosis project (AID 489018); type: functional; settings: Mycobacterium tuberculosis
[3] = target: T1, Bcl-2-like protein 10 (Homo sapiens, UniProt Q9HD36); assay: Bcl-B/TR3 peptide binding disruption – biochemical, fluorescence polarization, FITC-TR3 peptide, selectivity assay for Bfl-1 inhibitor project, primary screen (AID 748);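 also: fluorescence polarization from a fluorescein-labelled TR3 peptide binding purified Bcl-B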
T1 sequence (Q9HD36 whole entry): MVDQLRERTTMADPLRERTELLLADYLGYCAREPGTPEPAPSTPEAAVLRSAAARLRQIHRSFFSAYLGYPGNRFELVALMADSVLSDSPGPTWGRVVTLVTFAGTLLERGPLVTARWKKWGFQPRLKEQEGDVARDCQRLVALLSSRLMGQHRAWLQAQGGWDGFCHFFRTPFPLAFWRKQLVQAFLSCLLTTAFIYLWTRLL

[4] = target: T2, Histone-lysine N-methyltransferase NSD2 (Homo sapiens, UniProt O96028); type: biochemical
T2 sequence (O96028 whole entry): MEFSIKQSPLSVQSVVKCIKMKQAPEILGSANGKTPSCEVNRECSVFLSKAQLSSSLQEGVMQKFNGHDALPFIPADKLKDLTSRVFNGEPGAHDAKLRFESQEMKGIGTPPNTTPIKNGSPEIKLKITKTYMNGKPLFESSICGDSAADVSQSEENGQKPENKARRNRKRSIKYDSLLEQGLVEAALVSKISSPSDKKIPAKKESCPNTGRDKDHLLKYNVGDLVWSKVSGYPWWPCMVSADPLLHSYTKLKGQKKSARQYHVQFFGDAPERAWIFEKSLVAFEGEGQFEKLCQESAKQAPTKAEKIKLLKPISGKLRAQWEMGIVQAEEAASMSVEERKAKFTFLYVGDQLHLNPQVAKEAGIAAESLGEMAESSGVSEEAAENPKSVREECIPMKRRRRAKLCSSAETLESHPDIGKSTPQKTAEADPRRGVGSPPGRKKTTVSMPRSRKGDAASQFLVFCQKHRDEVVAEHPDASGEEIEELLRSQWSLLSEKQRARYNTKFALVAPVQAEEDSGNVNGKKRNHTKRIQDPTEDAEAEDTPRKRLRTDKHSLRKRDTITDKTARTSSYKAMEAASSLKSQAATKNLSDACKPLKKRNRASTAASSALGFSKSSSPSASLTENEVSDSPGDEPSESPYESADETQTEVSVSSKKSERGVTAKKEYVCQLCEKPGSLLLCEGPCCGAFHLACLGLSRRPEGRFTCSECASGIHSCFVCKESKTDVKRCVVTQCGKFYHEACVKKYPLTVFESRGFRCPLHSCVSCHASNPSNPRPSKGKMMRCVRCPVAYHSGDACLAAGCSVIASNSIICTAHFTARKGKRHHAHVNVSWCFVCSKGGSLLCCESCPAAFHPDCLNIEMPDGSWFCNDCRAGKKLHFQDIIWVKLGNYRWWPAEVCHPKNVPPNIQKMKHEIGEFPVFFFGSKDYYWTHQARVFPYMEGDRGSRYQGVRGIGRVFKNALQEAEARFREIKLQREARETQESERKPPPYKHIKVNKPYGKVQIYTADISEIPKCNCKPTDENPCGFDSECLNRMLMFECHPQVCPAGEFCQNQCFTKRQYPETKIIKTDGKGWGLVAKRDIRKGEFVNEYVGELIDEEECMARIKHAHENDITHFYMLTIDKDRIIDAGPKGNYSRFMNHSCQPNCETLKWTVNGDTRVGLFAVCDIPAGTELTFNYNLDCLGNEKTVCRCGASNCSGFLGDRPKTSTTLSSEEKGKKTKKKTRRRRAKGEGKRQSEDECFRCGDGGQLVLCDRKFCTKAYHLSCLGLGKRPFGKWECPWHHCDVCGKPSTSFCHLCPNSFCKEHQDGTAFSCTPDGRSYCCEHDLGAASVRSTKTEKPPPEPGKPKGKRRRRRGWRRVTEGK

[5] = target: Eukaryotic translation initiation factor 4E (Mus musculus, UniProt P63073); assay: blockers of eIF4G binding by eIF4E – biochemical, TR-FRET, dose response (AID 855); type: functional;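 also: potency for disrupting eIF4E binding to eIF4GI seen as loss of FRET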
[6] = intracellular Trypanosoma cruzi inhibitors in host cells – cell-based, plate reader, cherry-pick samples, set 3, dose response (AID 651818); type: functional;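 also: compounds incubated with infected cells for about four days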
[7] = growth inhibition of PfATP4-mutant resistant parasites – NITD609-resistant line, SYBR Green, dry powder, dose response (AID 1159571); type: functional, cell-based;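 also: parasites synchronized at ring stage by sorbitol before testing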
[8] = growth inhibition of yeast DHODH-expressing 3D7 parasites – SYBR Green, dry powder samples, dose response (AID 1159570); type: functional, cell-based;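 also: parasite growth measured after 72 hours of compound exposure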
[9] = Dd2 malaria parasite growth inhibition potency – SYBR Green, dry powder samples, dose response (AID 1159566); type: functional, cell-based;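 also: potency for growth inhibition with lower SYBR green DNA signal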
[10] = P. falciparum Dd2 growth inhibitors, dose response, SYBR Green, cherry-picked samples (AID 1159567); type: functional, cell-based
[11] = OVCAR8 cell viability loss – plate reader, dry powder samples, PAX8 project, dose response (AID 743197); type: functional, cell-based; settings: OVCAR-8
[12] = target: Paired box protein Pax-8 (Homo sapiens, UniProt Q06710); assay: PAX8 transcriptional activity inhibition in RMG-I – RMG-I cells, luciferase, cherry-pick, dose response (AID 687027); type: functional, cell-based;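 also: luciferase reporter driven by Pax8 target thyroperoxidase promoter measured by SteadyGlo luminescence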
[13] = blockers of bursicon-stimulated LGR2 cAMP reporter – cell-based, HEK293, CRE-luciferase reporter, cherry pick, set 2, dose response (AID 743343); type: functional;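 also: transfected cells were stimulated with diluted bursicon conditioned medium after compound addition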
[14] = viability loss in HEK293 cells – cell-based, plate reader, cherry-picked samples, cytotoxicity control, dose response (AID 743446); type: functional
[15] = A549 cell cytotoxicity, dose response, cytotoxicity control, plate reader, cherry-pick, antagonist series (AID 743412); type: functional, cell-based
[16] = blockade of melanocortin 4 receptor signaling – cell-based, plate reader, cherry pick, counter-screen for LGR2 antagonist project, dose response (AID 743444); type: functional;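 also: transfected HEK 293 cells stimulated with alpha-MSH peptide; potency of inhibitors of the alpha-MSH evoked signal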
[17] = toxicity toward HepG2 liver cells – cell-based, plate reader, cherry-pick, antagonist series, cytotoxicity control, dose response (AID 743416); type: functional
[18] = target: Prothrombin (Homo sapiens, UniProt P00734); assay: Thrombin 1536 HTS Dose Response Confirmation. [Related pubchem assays: 1046 (Thrombin 1536 HTS; hits were confirmed in this assay)]; type: functional
[19] = HGIII-sPLA2 enzyme inhibition potency – biochemical, QFRET, IC50, dose response (AID 743457);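 also: green fluorescence rise as the enzyme cleaves BODIPY PC-A2 in liposomes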
[20] = toxicity to human hepatoma HepG2 cells – cell-based, cherry-picked samples, cytotoxicity control, dose response (AID 1159577); type: functional

Eukaryotic translation initiation factor 4E, sequence (P63073 whole entry): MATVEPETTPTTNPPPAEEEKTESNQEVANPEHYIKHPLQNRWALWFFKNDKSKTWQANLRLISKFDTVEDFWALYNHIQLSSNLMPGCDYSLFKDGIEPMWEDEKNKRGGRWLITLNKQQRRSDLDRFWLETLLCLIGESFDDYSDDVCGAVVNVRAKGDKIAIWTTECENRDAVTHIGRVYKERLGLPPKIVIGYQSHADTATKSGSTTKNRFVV
Paired box protein Pax-8, sequence (Q06710 whole entry): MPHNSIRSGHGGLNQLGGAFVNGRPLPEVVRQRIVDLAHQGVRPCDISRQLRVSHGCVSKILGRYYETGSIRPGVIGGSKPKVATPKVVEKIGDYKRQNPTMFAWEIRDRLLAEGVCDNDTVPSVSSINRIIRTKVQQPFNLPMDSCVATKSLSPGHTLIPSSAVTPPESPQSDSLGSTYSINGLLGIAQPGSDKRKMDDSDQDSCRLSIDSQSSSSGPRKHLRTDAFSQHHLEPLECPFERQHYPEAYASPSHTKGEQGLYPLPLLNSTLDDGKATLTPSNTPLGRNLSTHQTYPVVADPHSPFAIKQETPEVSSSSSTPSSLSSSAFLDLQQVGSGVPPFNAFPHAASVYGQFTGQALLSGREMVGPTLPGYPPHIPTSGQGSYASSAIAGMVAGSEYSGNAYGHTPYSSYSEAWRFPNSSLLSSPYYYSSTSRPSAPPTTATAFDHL

SMILES: CCOc1ccc(C(=O)Nc2ccc(N3CCN(C)CC3)cc2)cc1Br
- IC50 [1]: 31.4 µM (active)
- CC50 [2]: > 20 µM (active)
- IC50 [3]: 558 nM (active)

SMILES: CCN1/C(=C/C(C)=C/c2sc3ccccc3[n+]2CC)Sc2ccccc21
- AC50 [4]: 7.11 µM (active)

SMILES: Cc1cc(O)c(/C=N/OCc2ccc(Cl)cc2Cl)c(=O)o1
- IC50 [5]: 50 µM (inactive)

SMILES: C[C@@H]1CN([C@H](C)CO)C(=O)c2cccc(NC(=O)Nc3cccc4ccccc34)c2O[C@@H]1CN(C)C(=O)Nc1ccc(C(F)(F)F)cc1
- AC50 [6]: 7.71 µM (active)
- AC50 [7]: 1.21 µM (active)
- AC50 [8]: 1.15 µM (active)
- AC50 [9]: 1.37 µM (active)
- AC50 [10]: 1.59 µM (active)

SMILES: C[C@H]1CN([C@@H](C)CO)S(=O)(=O)c2ccc(-c3ccc(C#N)cc3)cc2O[C@@H]1CN(C)Cc1cccc(F)c1
- AC50 [11]: > 60 µM (inactive)
- AC50 [12]: 8.67 µM (active)

SMILES: N#C[C@@H]1[C@H](c2ccc(C#Cc3ccc(F)cc3)cc2)[C@@H](CO)N1C(=O)C1CCCC1
- AC50 [13]: 15.8 µM (active)
- AC50 [14]: 50.9 µM (active)
- AC50 [15]: 19.1 µM (active)
- AC50 [16]: 13.1 µM (active)
- AC50 [17]: 18.5 µM (active)

SMILES: O=C(O)c1ccc(/N=C/c2nc(-c3ccco3)oc2O)cc1
- IC50 [18]: > 50 µM (not active)

SMILES: C/C(=N\NC(=S)Nc1ccc(C)cc1)c1cc2ccccc2o1.CN(C)C=O
- IC50 [19]: 31.8 µM (inactive)

SMILES: COc1ccccc1C#Cc1ccc([C@H]2[C@@H](C#N)N(C(=O)C3CC3)[C@H]2CO)cc1
- AC50 [7]: 1.69 µM (active)
- AC50 [8]: 1.35 µM (active)
- AC50 [9]: 0.692 µM (active)

SMILES: CCCNC(=O)N1[C@H](CO)[C@H](c2ccc(C3=CCCCC3)cc2)[C@H]1CNC(C)C
- AC50 [20]: 39.6 µM (active)
- AC50 [10]: 5.26 µM (active)

SMILES: C[C@@H]1CN([C@@H](C)CO)C(=O)c2cc(C#CCc3ccccc3)cnc2O[C@H]1CN(C)CC1CCCC1
- AC50 [20]: 14.2 µM (active)
- AC50 [10]: 1.31 µM (active)
